# Source: patent US12083268B2, “Delivery device and formulation” (Ockham Biotech Limited, priority 2016, dated 2024)
# Values joined by “and” are separate entries in the source; they are usually repeats but may differ in a detail not shown here. Identical values can stand only once.
# Experiments:
# [1] = Solubility of dexamethasone in NaCl solution with and without heparin; assay type: physicochemical
# [2] = Physicochemical characterisation of heparin solutions in water
# Method: Tests for viscosity, surface tension and osmolality were carried out in triplicate. For pH and density single measurements were performed.
# [3] = Laser diffraction of aerosol from heparin solutions nebulised with PARI eFlow; assay type: physicochemical
# Method: There is a moderate increase from 1.25±0.01 to 1.99±0.02 mPa·s between 6 and 30 mg/mL and a strong increase to 8.9±0.08 mPa·s when the concentration is further increased to 150 mg/mL. The surface tension (nearly equal to that of water) remains constant between 6 and 30 mg/mL and increases only slightly (from 72.41±0.02 to 73.78±0.05 mN/m) between 30 and 150 mg/mL. As expected the osmolality increases with increasing concentration, going from 0.014±0.001 to 0.293±0.001 osmol/kg over the investigated concentration range. […] All formulations show a pH (between 5.97 and 6.50) which would be appropriate for inhalation (the allowed range according to the European Pharmacopoeia is pH 3.0-8.5). The heparin solutions were nebulised using a PARI eFlow® device configured with Head class 40, which typically results in droplet sizes from 4.0-4.9 μm when using dilute aqueous formulations. The properties of the resultant aerosol particles were measured using laser diffraction, and are compared with the results obtained for isotonic saline measured using the same nebuliser configuration in Table 2.
# [4] = Particle size distribution of heparin solutions aerosolised with Aeroneb Go (HELOS KR particle sizer); assay type: physicochemical
# Method: The particle size distribution of heparin solutions was measured after aerosolisation of the heparin solutions using the Aeroneb® Go nebuliser. Particle size measurements were made using the HELOS KR particle sizer device, INHALER module, and WINDOX 5.0 software from SympatecGmbH (Clausthal-Zellerfeld, Germany). The total volume of solution in the reservoir of the nebuliser was 6 mL: 1.5 mL heparin (Wokhardt, 25,000 IU/mL) with 4.5 mL 0.9% aqueous NaCl (final concentration of heparin=6250 IU/mL or 31.25 mg/mL; final concentration of NaCl=[…]). The viscosity of the solution was 1.7 mPa·s. The nebulisation time was 14 min (reservoir empty); particle size measurements were divided into 1 min intervals. The particle distribution is seen to be bimodal. The X50 is […] (mean±standard deviation), where 50% of the total number of the particles is in particles less than this size. […] Optical concentration (droplets in laser pathway) was used as an indication of nebulisation efficiency; this nebulisation efficiency was determined to be 76.91%±4.25%.
# (§1) Aqueous solutions of unfractionated heparin as its sodium salt containing various concentrations of an added inorganic salt were also aerosolised using the Aeroneb® Go. Particle size measurements were made using the HELOS KR particle sizer device, INHALER module, and WINDOX 5.0 software from SympatecGmbH (Clausthal-Zellerfeld, Germany). The heparin sodium salt was obtained from pig intestinal mucosa (Calbiochem, molecular weight 12-15 kDa, 192 U/mg). The particle size distributions are shown in FIGS. 2-7 and the important parameters, quoted as mean values ±standard deviations, are summarised in Table 4 below.
# A 40 mg/mL aqueous solution of heparin containing 140 mM NaCl was aerosolised using the Aeroneb® Go nebuliser in the absence and presence of salbutamol (a bronchodilator) and dexamethasone (a corticosteroid). Particle size measurements were made using the HELOS KR particle sizer device, INHALER module, and WINDOX 5.0 software from SympatecGmbH (Clausthal-Zellerfeld, Germany).
# [5] = Viscosity of heparin salt solutions (BS/U-tube viscometer); assay type: physicochemical; conditions: 40 mg/mL heparin
# Source text: as §1
# [6] = HPLC of unfractionated heparin before and after nebulisation with PARI eFlow; assay type: physicochemical; conditions: 0.25 mg/mL (50 U/mL) in water
# Method: A solution of unfractionated heparin (diluted to 50 U/mL, i.e. 0.25 mg/mL, in ultra high quality water) was analysed by high performance liquid chromatography. HPLC analysis was performed using a […] ion-paring C8 column (Hichrom, Reading, UK), a Rheodyne 7725 syringe loading sample injector fitted with a 20 μL loop (Rheodyne, Cotati, CA, USA), a LKB2150 dual piston pump (LK Bromma, Swedon), a HP 1050CVW detector (Agilent, UK), a HP 3396A integrator (Agilent, UK) and a Rheodyne 25 μL capacity syringe was used to load a 20 μL sample into the injection port. HPLC conditions consisted of an ultraviolet wavelength selected at 232 nm. The flow rate was adjusted to 0.50 mL/min and a pressure of 50 bar was recorded. A mobile phase composed of 30% acetonitrile and 70% aqueous solution comprising 15 mM tetrabutylammonium hydroxide and 50 mM ammonium acetate in HPLC grade water, adjusted to pH 7 with acetic acid, was used. The resulting HPLC trace is shown as the left-hand trace in FIG. 11.
# An identical sample of unfractionated heparin was nebulised using the PARI eFlow® device, and recollected. […] The resulting HPLC trace is shown as the right-hand trace in FIG. 11.
# [7] = Anti-coagulant activity after nebulisation from PARI eFlow
# Source text: In an additional experiment, it was also observed that the anti-coagulant activity of the unfractionated heparin was retained after nebulisation from the PARI eFlow® device.
# [8] = Viscosity of heparin salt solutions (BS/U-tube viscometer); assay type: physicochemical
# [9] = in water; reference [7]; cited from earlier work
# [10] = 31.25 mg/mL heparin, 154 mM NaCl, Aeroneb Go
# [11] = 40 mg/mL heparin, 112 mM NaCl, 56 mM MgCl2, Aeroneb Go
# [12] = 40 mg/mL heparin, 140 mM NaCl, Aeroneb Go
# [13] = 40 mg/mL heparin, 168 mM NaCl, Aeroneb Go
# [14] = 40 mg/mL heparin, 196 mM NaCl, Aeroneb Go
# [15] = 40 mg/mL heparin, 210 mM NaCl, Aeroneb Go
# [16] = 40 mg/mL heparin, 224 mM NaCl, Aeroneb Go
# [17] = 40 mg/mL unfractionated heparin, 140 mM NaCl, 0.75 mg/mL dexamethasone, Aeroneb Go
# [18] = 40 mg/mL unfractionated heparin, 140 mM NaCl, 0.83 mg/mL salbutamol, Aeroneb Go
# [19] = 40 mg/mL unfractionated heparin, 140 mM NaCl, no second agent, Aeroneb Go
molecule,measurement,setting,value
C[C@@H]1C[C@H]2[C@@H]3CCC4=CC(=O)C=C[C@]4(C)[C@@]3(F)[C@@H](O)C[C@]2(C)[C@@]1(O)C(=O)CO [dexamethasone],solubility (in words),[1]; 0.25 mg/mL in 140 mM NaCl alone,not soluble
same,solubility (in words),[1]; in 140 mM NaCl containing 40 mg/mL heparin,soluble
heparin,Viscosity,[2]; 6 mg/mL heparin in water,1.25±0.01 mPa · s and 1.25 mPa · s
same,density,[2]; 6 mg/mL heparin in water,1.00 g/mL
same,osmolality,[2]; 6 mg/mL heparin in water,0.014±0.001 osmol/kg and 0.014 osmol/kg
same,pH,[2]; 6 mg/mL heparin in water,6.50
same,surface tension,[2]; 6 mg/mL heparin in water,72.58 mN/m
same,Viscosity,[2]; 30 mg/mL heparin in water,1.99±0.02 mPa · s and 1.99 mPa · s
same,density,[2]; 30 mg/mL heparin in water,1.01 g/mL
same,osmolality,[2]; 30 mg/mL heparin in water,0.056 osmol/kg
same,pH,[2]; 30 mg/mL heparin in water,6.01
same,surface tension,[2]; 30 mg/mL heparin in water,72.41±0.02 mN/m and 72.41 mN/m
same,Viscosity,[2]; 150 mg/mL heparin in water,8.9±0.08 mPa · s and 8.90 mPa · s
same,density,[2]; 150 mg/mL heparin in water,1.07 g/mL
same,osmolality,[2]; 150 mg/mL heparin in water,0.293±0.001 osmol/kg and 0.293 osmol/kg
same,pH,[2]; 150 mg/mL heparin in water,5.97
same,surface tension,[2]; 150 mg/mL heparin in water,73.78±0.05 mN/m and 73.78 mN/m
same,MMD (median mass diameter),[3]; 6 mg/mL heparin,4.6 μm
same,RF (respirable fraction) [% <5 μm],[3]; 6 mg/mL heparin,57.9%
same,MMD (median mass diameter),[3]; 30 mg/mL heparin,4.4 μm
same,RF (respirable fraction) [% <5 μm],[3]; 30 mg/mL heparin,63.0%
same,X50,[4]; [10],3.45 ± 0.025 µm
same,X90,[4]; [10],less than 8.5 m
same,particles within the respirable range of 1-5 μm,[4]; [10],57.87%
same,Particles in 1-5 μm range,[4]; [11],58.46% and 58.46 ± 0.30%
same,VMD (volume median diameter),[4]; [11],4.31 ± 0.05 μm
same,X50,[4]; [11],3.49 ± 0.056 μm
same,Particles in 1-5 μm range,[4]; [12],50.76% and 50.76 ± 0.63%
same,VMD (volume median diameter),[4]; [12],4.80 ± 0.06 μm
same,X50,[4]; [12],4.095 ± 0.044 μm
same,X50,"[4]; 40 mg/mL heparin, 140 mM NaCl, no second agent, Aeroneb Go (as restated in conclusions)",3.98±0.03 μm
same,VMD,"[4]; 40 mg/mL heparin, 140 mM NaCl, with salbutamol, Aeroneb Go (as restated in conclusions)",4.47 μm
same,Particles in 1-5 μm range,[4]; [13],56.65% and 56.65 ± 0.47%
same,VMD (volume median diameter),[4]; [13],4.41 ± 0.025 μm
same,X50,[4]; [13],3.543 ± 0.049 μm
same,Particles in 1-5 μm range,[4]; [14],48.62% and 48.62 ± 0.38%
same,VMD (volume median diameter),[4]; [14],4.68 ± 0.02 μm
same,X50,[4]; [14],3.978 ± 0.022 μm
same,Particles in 1-5 μm range,[4]; [15],55% and 55 ± 0.24%
same,VMD (volume median diameter),[4]; [15],4.55 ± 0.023 μm
same,X50,[4]; [15],3.812 ± 0.027 μm
same,Particles in 1-5 μm range,[4]; [16],57.02% and 57.02 ± 0.28%
same,VMD (volume median diameter),[4]; [16],4.37 ± 0.032 μm
same,X50,[4]; [16],3.51 ± 0.03 μm
same,VMD,[4]; [17],4.61 ± 0.058 µm
same,X50,[4]; [17],3.906±0.048 μm
same,particles within the respirable range of 1-5 m,[4]; [17],49.954%
same,VMD,[4]; [18],4.47 ± 0.054 µm
same,X50,[4]; [18],3.546±0.045 μm
same,particles within the respirable range of 1-5 m,[4]; [18],55.154%
same,VMD,[4]; [19],4.64±0.033 μm
same,X50,[4]; [19],3.98 ± 0.03 µm
same,particles within the respirable range of 1-5 μm,[4]; [19],48.21%
same,Viscosity,"[5]; 0 mM NaCl, 0 mM MgCl2",2.5 mPa · s
same,Viscosity,"[5]; 112 mM NaCl, 56 mM MgCl2",2 mPa · s and 2.0 mPa · s
same,Viscosity,[5]; 140 mM NaCl,2.22 mPa · s
same,Viscosity,[5]; 168 mM NaCl,2.25 mPa · s
same,Viscosity,[5]; 196 mM NaCl,2.2 mPa · s
same,Viscosity,[5]; 210 mM NaCl,2.2 mPa · s
same,Viscosity,[5]; 224 mM NaCl,2 mPa · s and 2.0 mPa · s
same,structural integrity / degradation on nebulisation (HPLC traces before vs after),[6],does not lead to degradation
same,anti-coagulant activity after nebulisation,[7],retained
same,Viscosity,"[8]; 31.25 mg/mL (6250 IU/mL) heparin, 154 mM NaCl",1.7 mPa·s
same,Viscosity,"[8]; 40 mg/mL unfractionated heparin, 140 mM NaCl (Example 3)",2.2 mPa·s
same,intrinsic viscosity,[9],80.6 mL/g
